From US20250215029A1 (Recludix Pharma, Inc., priority 2022, published 2025)

Each compound was assayed against T1, pY705-STAT3 in PBMC (Homo sapiens, UniProt P40763) (assay: MSD-pSTAT-PBMC Assay (pSTAT3, IL-6 stimulated)). Conditions: PBMC, compound 3 hrs, then 10 ng/mL IL-6 for 10 min; Table 115; read-out: STAT3.
T1 construct: Cryopreserved Peripheral Blood Mononuclear Cells (PBMC) are from AllCells; host or cells: cryopreserved PBMC
T1 sequence (P40763 whole entry): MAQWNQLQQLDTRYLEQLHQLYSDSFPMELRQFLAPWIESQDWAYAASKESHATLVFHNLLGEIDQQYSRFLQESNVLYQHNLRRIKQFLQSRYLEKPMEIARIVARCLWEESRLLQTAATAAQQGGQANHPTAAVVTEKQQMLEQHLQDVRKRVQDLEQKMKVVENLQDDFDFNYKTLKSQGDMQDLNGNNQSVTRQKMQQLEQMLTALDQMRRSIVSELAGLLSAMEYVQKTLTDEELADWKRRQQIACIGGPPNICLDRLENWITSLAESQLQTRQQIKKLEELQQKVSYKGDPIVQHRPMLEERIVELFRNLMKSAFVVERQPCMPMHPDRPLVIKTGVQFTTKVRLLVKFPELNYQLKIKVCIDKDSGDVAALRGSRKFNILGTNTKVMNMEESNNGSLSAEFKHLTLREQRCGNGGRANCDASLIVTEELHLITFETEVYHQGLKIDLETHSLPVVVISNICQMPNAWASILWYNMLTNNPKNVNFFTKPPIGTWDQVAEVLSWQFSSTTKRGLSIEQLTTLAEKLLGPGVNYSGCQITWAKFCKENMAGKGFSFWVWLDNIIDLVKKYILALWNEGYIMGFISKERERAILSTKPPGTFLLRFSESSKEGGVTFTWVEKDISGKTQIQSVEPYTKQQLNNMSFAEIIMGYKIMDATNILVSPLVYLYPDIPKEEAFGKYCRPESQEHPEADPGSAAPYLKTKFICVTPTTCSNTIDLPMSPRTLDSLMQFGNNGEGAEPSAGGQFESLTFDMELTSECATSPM
Assay type: cell-based
How it was run: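 PBMC (human, cryopreserved, overnight recovery) + cpd 3 hrs → IL-6 10 ng/mL (STAT3) or IL-4 1 ng/mL (STAT6) ×10 min → lysis with protease/phosphatase inhibitors → MSD capture/phospho detection. IC50, variable slope, DMSO-normalized.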
`CCCOC(=O)[C@H](C)NP(=O)(Cc1ccc2sc(C(=O)N[C@H]3CCC[C@H]4CC[C@@H](C(=O)N5CC(c6cccnc6)C5)N4C3=O)cc2c1)N1CCCC1=O` (stereo partly drawn) [Compound 433, propyl (((2-(((3S,6S,9aS)-5-oxo-3-(3-(pyridin-3-yl)azetidine-1-carbonyl)octahydro-1H-pyrrolo[1,2-a]azepin-6-yl)carbamoyl)benzo [b]thiophen-5-yl)methyl)(2-oxopyrrolidin-1-yl)phosphoryl)-L-alaninate] gave an IC50 of 1000 to 3000 nM.
Work on `CCCCOC(=O)[C@@H]1CCCN1P(=O)(Cc1ccc2sc(C(=O)N[C@H]3CCC[C@H]4CC[C@@H](C(=O)N5CC(c6cccnc6)C5)N4C3=O)cc2c1)Oc1ccccc1` (stereo partly drawn) [Compound 1003, butyl (((2-(((3S,6S,9aS)-5-oxo-3-(3-(pyridin-3-yl)azetidine-1-carbonyl)octahydro-1H-pyrrolo[1,2-a]azepin-6-yl)carbamoyl)benzo [b]thiophen-5-yl)methyl)(phenoxy)phosphoryl)-L-prolinate] yielded an IC50 of 1000 to 3000 nM.
Work on `CCCOC(=O)[C@H](C)NP(=O)(Oc1ccccc1)[C@@H](F)c1ccc2sc(C(=O)N[C@H]3CCC[C@H]4CC[C@@H](C(=O)N5CC(c6cncnc6N6CCOCC6)C5)N4C3=O)cc2c1` (stereo partly drawn) [Compound 1066, propyl (((R)-fluoro(2-(((3S,6S,9aS)-3-(3-(4-morpholino-pyrimidin-5-yl)azetidine-1-carbonyl)-5-oxooctahydro-1H-pyrrolo[1,2-a]azepin-6-yl)carbamoyl)benzo [b]thiophen-5-yl)methyl)(phenoxy)phosphoryl)-L-alaninate] yielded an IC50 of 100 to 1000 nM.
In the case of `CCCOC(=O)[C@H](C)NP(=O)(Cc1ccc2sc(C(=O)N[C@H]3CC[C@@H](C)C[C@H]4CC[C@@H](C(=O)N5CC(c6cnccc6C)C5)N4C3=O)cc2c1)Oc1ccccc1` (stereo partly drawn) [Compound 287, propyl (((2-(((3S,6S,9R,10aR)-9-methyl-3-(3-(4-methylpyridin-3-yl)azetidine-1-carbonyl)-5-oxodecahydropyrrolo [1,2-a]azocin-6-yl)carbamoyl)benzo [b]thiophen-5-yl)methyl)(phenoxy)phosphoryl)-L-alaninate], the IC50 is reported as < 100 nM.
For `COC1(c2cccnc2)CN(C(=O)[C@@H]2CC[C@@H]3CCCC[C@H](NC(=O)c4cc5cc(CP(=O)(N[C@@H](C)C(=O)OCC(C)C)Oc6ccccc6)ccc5s4)C(=O)N32)C1` (stereo partly drawn) [Compound 281, isobutyl (((2-(((3S,6S,10aS)-3-(3-methoxy-3-(pyridin-3-yl)azetidine-1-carbonyl)-5-oxodecahydropyrrolo [1,2-a]azocin-6-yl)carbamoyl)benzo [b]thiophen-5-yl)methyl)(phenoxy)phosphoryl)-L-alaninate], the IC50 was < 100 nM.
In the case of `CC(C)CC(=O)SCCOP(=O)(OCOC(=O)O[C@@H]1CCOC1)C(F)(F)c1ccc2sc(C(=O)N[C@H]3CCC[C@H]4CC[C@@H](C(=O)N5CC(c6ncccn6)C5)N4C3=O)cc2c1` (stereo partly drawn) [Compound 1098, S-(2-(((difluoro(2-(((3S,6S,9aS)-5-oxo-3-(3-(pyrimidin-2-yl)azetidine-1-carbonyl)octahydro-1H-pyrrolo[1,2-a]azepin-6-yl)carbamoyl)benzo [b]thiophen-5-yl)methyl)((((((R)-tetrahydrofuran-3-yl)oxy)carbonyl)oxy)methoxy)phosphoryl)oxy)ethyl) 3-methylbutanethioate], the IC50 is reported as < 100 nM.
With `CCCOC(=O)[C@H](C)N[P@](=O)(Oc1ccccc1)[C@H](F)c1ccc2sc(C(=O)N[C@H]3CCC[C@H]4CC[C@@H](C(=O)N5CC(c6cnccc6N(C)C)C5)N4C3=O)cc2c1` (stereo in doubt) [Compound 953] the IC50 was < 100 nM.
In the case of `CCCOC(=O)[C@H](C)NP(=O)(Oc1ccccc1)C(F)c1ccc2sc(C(=O)N[C@H]3CCCC[C@H]4CC[C@@H](C(=O)N5CC(NCC(F)F)(c6ccccn6)C5)N4C3=O)cc2c1` (stereo partly drawn) [Compound 1020, propyl (((2-(((3S,6S,10aS)-3-(3-((2,2-difluoroethyl)amino)-3-(pyridin-2-yl)azetidine-1-carbonyl)-5-oxodecahydropyrrolo [1,2-a]azocin-6-yl)carbamoyl)benzo [b]thiophen-5-yl)fluoromethyl) (phenoxy)phosphoryl)-L-alaninate], the IC50 is reported as < 100 nM.
For `CCCOC(=O)CNP(=O)(Cc1ccc2sc(C(=O)N[C@H]3CCC[C@H]4CC[C@@H](C(=O)N5CC(c6cccnc6)C5)N4C3=O)cc2c1)Oc1ccccc1` (stereo partly drawn) [Compound 264, propyl (((2-(((3S,6S,9aS)-5-oxo-3-(3-(pyridin-3-yl)azetidine-1-carbonyl)octahydro-1H-pyrrolo[1,2-a]azepin-6-yl)carbamoyl)benzo [b]thiophen-5-yl)methyl)(phenoxy)phosphoryl)glycinate], the IC50 was 100 to 1000 nM.
`CCCOC(=O)[C@H](C)NP(=O)(Cc1ccc2sc(C(=O)N[C@H]3CC[C@@H](C)C[C@H]4CC[C@@H](C(=O)N5CC(c6cnccc6F)C5)N4C3=O)cc2c1)Oc1ccccc1` (stereo partly drawn) [Compound 988, propyl (((2-(((3S,6S,9R,10aR)-3-(3-(4-fluoropyridin-3-yl)azetidine-1-carbonyl)-9-methyl-5-oxodecahydropyrrolo [1,2-a]azocin-6-yl)carbamoyl)benzo [b]thiophen-5-yl)methyl)(phenoxy)phosphoryl)-L-alaninate] was tested, and the IC50 was < 100 nM.
`CCCOC(=O)[C@H](C)NP(=O)(Cc1ccc2sc(C(=O)N[C@H]3CCC[C@H]4CC[C@@H](C(=O)N5CC(c6cnccc6N6CCC6)C5)N4C3=O)cc2c1)Oc1ccccc1` (stereo partly drawn) [Compound 1031, propyl (((2-(((3S,6S,9aS)-3-(3-(4-(azetidin-1-yl)pyridin-3-yl)azetidine-1-carbonyl)-5-oxooctahydro-1H-pyrrolo[1,2-a]azepin-6-yl)carbamoyl)benzo [b]thiophen-5-yl)methyl)(phenoxy)phosphoryl)-L-alaninate] was tested, and the IC50 was < 100 nM.
Work on `CCCOC(=O)[C@H](CCOC)NP(=O)(Cc1ccc2sc(C(=O)N[C@H]3CCC[C@H]4CC[C@@H](C(=O)N5CC(c6cccnc6)C5)N4C3=O)cc2c1)Oc1ccccc1` (stereo partly drawn) [Compound 431, propyl O-methyl-N-(((2-(((3S,6S,9aS)-5-oxo-3-(3-(pyridin-3-yl)azetidine-1-carbonyl)octahydro-1H-pyrrolo[1,2-a]azepin-6-yl)carbamoyl)benzo [b]thiophen-5-yl)methyl)(phenoxy)phosphoryl)-L-homoserinate] yielded an IC50 of 100 to 1000 nM.
`CC(C)OC(=O)C(C)(C)NP(=O)(Cc1ccc2sc(C(=O)N[C@H]3CCC[C@H]4CC[C@@H](C(=O)N5CC(c6cccnc6)C5)N4C3=O)cc2c1)Oc1ccccc1` (stereo partly drawn) [Compound 395, isopropyl 2-methyl-2-((((2-(((3S,6S,9aS)-5-oxo-3-(3-(pyridin-3-yl)azetidine-1-carbonyl)octahydro-1H-pyrrolo[1,2-a]azepin-6-yl)carbamoyl)benzo [b]thiophen-5-yl)methyl)(phenoxy)phosphoryl)amino) propanoate] showed an IC50 of 100 to 1000 nM.
With `CC(C)OC(=O)[C@H](C)NP(=O)(Cc1ccc2sc(C(=O)N[C@H]3CCC[C@H]4CC[C@@H](C(=O)N5CC(c6cccnc6)C5)N4C3=O)cc2c1)N[C@@H](C)C(=O)OC(C)C` [Compound 399, diisopropyl 2,2′-((((2-(((3S,6S,9aS)-5-oxo-3-(3-(pyridin-3-yl)azetidine-1-carbonyl)octahydro-1H-pyrrolo[1,2-a]azepin-6-yl)carbamoyl)benzo [b]thiophen-5-yl)methyl)phosphoryl)bis(azanediyl)) (2S,2′S)-dipropionate] the IC50 was 1000 to 3000 nM.
`CCCOC(=O)[C@H](C)NP(=O)(Oc1ccccc1)C(F)c1ccc2sc(C(=O)N[C@H]3CCCC[C@H]4CC[C@@H](C(=O)N5CC(OCCOC)(c6cccnc6)C5)N4C3=O)cc2c1` (stereo partly drawn) [Compound 995, propyl ((fluoro(2-(((3S,6S,10aS)-3-(3-(2-methoxyethoxy)-3-(pyridin-3-yl)azetidine-1-carbonyl)-5-oxodecahydropyrrolo [1,2-a]azocin-6-yl)carbamoyl)benzo [b]thiophen-5-yl)methyl)(phenoxy)phosphoryl)-L-alaninate] was tested, and the IC50 was < 100 nM.
For `CCCOC(=O)[C@H](C)NP(=O)(Oc1ccccc1)[C@@H](F)c1ccc2sc(C(=O)N[C@H]3CCC[C@H]4CC[C@@H](C(=O)N5CC(c6cncnc6N(C)C)C5)N4C3=O)cc2c1` (stereo partly shown) [Compound 1069], the IC50 was < 100 nM.
Compound `CCCOC(=O)[C@H](COC)NP(=O)(Cc1ccc2sc(C(=O)N[C@H]3CCC[C@H]4CC[C@@H](C(=O)N5CC(c6cccnc6)C5)N4C3=O)cc2c1)Oc1ccccc1` (stereo partly drawn) [Compound 430, propyl O-methyl-N-(((2-(((3S,6S,9aS)-5-oxo-3-(3-(pyridin-3-yl)azetidine-1-carbonyl)octahydro-1H-pyrrolo[1,2-a]azepin-6-yl)carbamoyl)benzo [b]thiophen-5-yl)methyl)(phenoxy)phosphoryl)-L-serinate] has an IC50 of 100 to 1000 nM.
With `CCCCOC(=O)[C@@H]1CC(F)(F)CN1P(=O)(Oc1ccccc1)C(F)(F)c1ccc2sc(C(=O)N[C@H]3CCC[C@H]4CC[C@@H](C(=O)N5CC(c6cccnc6)C5)N4C3=O)cc2c1` (stereo partly drawn) [Compound 323, butyl (2S)-1-((difluoro(2-(((3S,6S,9aS)-5-oxo-3-(3-(pyridin-3-yl)azetidine-1-carbonyl)octahydro-1H-pyrrolo[1,2-a]azepin-6-yl)carbamoyl)benzo [b]thiophen-5-yl)methyl)(phenoxy)phosphoryl)-4,4-difluoropyrrolidine-2-carboxylate] the IC50 was > 3000 nM.

Same assay, conditions: STAT3, PBMC, compound 3 hrs, then 10 ng/mL IL-6 for 10 min; Table 115
`CCCCOC(=O)[C@H](C)NP(=O)(Cc1ccc2sc(C(=O)N[C@H]3CCC[C@H]4CC[C@@H](C(=O)N5CC(c6cccnc6)C5)N4C3=O)cc2c1)Oc1cccc2ccccc12` (stereo partly drawn) [Compound 1004, butyl ((naphthalen-1-yloxy)((2-(((3S,6S,9aS)-5-oxo-3-(3-(pyridin-3-yl)azetidine-1-carbonyl)octahydro-1H-pyrrolo[1,2-a]azepin-6-yl)carbamoyl)benzo [b]thiophen-5-yl)methyl)phosphoryl)-L-alaninate] gave an IC50 of 100 to 1000 nM.
